Results on four molecules are retold here after patent publication US20220409747A1, “FIBROBLAST ACTIVATION PROTEIN (FAP)-TARGETED IMAGING AND THERAPY OF CANCERS AND OTHER FIBROTIC AND INFLAMMATORY DISEASES” (Purdue Research Foundation, priority 2019, published 2022).

Experiment [1] has as its target T1, FAP (e.g., FAP5) on HEK-FAP cells (Homo sapiens, UniProt Q12884).
T1 construct: expressed in transfected cells; host or cells: HEK
T1 sequence (Q12884 1-760): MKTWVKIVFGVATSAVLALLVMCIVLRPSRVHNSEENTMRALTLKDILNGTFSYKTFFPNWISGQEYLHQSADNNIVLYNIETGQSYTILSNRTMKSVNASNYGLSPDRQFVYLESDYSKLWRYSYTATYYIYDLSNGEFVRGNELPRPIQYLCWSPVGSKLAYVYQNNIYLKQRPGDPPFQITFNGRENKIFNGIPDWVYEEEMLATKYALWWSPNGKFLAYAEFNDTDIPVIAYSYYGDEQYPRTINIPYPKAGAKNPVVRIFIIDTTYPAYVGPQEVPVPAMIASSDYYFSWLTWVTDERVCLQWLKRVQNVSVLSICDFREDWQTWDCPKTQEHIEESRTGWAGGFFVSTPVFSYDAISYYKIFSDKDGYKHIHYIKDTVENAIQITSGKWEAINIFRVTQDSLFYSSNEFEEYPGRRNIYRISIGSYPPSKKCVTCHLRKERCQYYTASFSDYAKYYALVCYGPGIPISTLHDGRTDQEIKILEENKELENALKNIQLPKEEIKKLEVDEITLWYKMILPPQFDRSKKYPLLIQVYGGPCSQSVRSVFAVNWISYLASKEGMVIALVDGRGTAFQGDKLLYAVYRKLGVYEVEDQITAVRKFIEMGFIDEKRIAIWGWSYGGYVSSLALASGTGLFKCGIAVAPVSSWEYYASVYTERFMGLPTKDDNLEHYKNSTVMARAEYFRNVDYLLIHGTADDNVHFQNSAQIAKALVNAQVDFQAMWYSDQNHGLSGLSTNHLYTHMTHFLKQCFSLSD
The experiment can be described thus: Displacement binding curves in HEK-FAP cells. The following applies: displacement binding (FIGS. 21-22), read-out: affinity for cells that express FAP.

Experiment [2] has as its system HT1080 cells that do not express FAP5. The experiment can be described thus: Binding assay on HT1080 cells that do not express FAP5. Also noted: species or system human. The note with it: FIG. 8. On the procedure:
(§1) Method 2: 100,000 HT1080-hFAP and HT1080 cells were seeded in amine-coated 24-well plates to ensure cell adherence. Upon formation of a monolayer, cells were incubated with various concentrations of the compound in the presence or absence of excess of unlabeled ligand. After incubation for 1 h, the cells were washed 3× with medium to remove to unbound fluorescence and dissolved in 1% SDS. The cell-bound fluorescence was measured using a fluorescence spectrophotometer (NeO2 Plate reader) set with a λex=555 nm and λem=575 nm. Cell-bound fluorescence was plotted against various concentrations and the apparent Kd was determined by using one-site binding (hyperbola) curve fit in GraphPad prism7. The experiment was done in triplicate.

The target of experiment [3] is T2, FAP5 on HT1080-FAP (HT1080-hFAP) cells (Homo sapiens, UniProt Q12884).
T2 construct: expressed in transfected cells; host or cells: HT1080
T2 sequence (Q12884 1-760): T1 sequence (Q12884 1-760)
The experiment can be described thus: Binding assay (cell-bound fluorescence, apparent Kd) on HT1080-FAP cells. Here is the method:
Method 1: HT1080-FAP cells (200000 cells/well) were seeded in a 24-well plate. The cells were allowed to grow as a monolayer over 24 h and incubated with various concentrations of FAP-targeted rhodamine conjugate either in the presence or absence of excess competition ligand (ligand without dye). After incubating for 1 h at 4° C. the cells were washed 3× with PBS to remove unbound fluorescence. The cells were then dissolved in 1% SDS and the cell-bound fluorescence was measured using a Neo2 Plate Reader.
as §1

Experiment [4] concerns the target T3, FAP5-expressing HT1080-FAP cells (human FAP-transfected) (Homo sapiens, UniProt Q12884).
T3 construct: expressed in transfected cells; host or cells: HT1080
T3 sequence (Q12884 1-760): T1 sequence (Q12884 1-760)
The experiment is described as follows: Confocal binding studies of FAP-targeting ligand on HT1080-FAP cells. It counts as cell-based. Here is the method: Method 1: HT1080-FAP cells ([…]) were seeded in 4-well confocal plates. The cells were allowed to grow as a monolayer over 24 h at 37° C. and were incubated with various concentrations of conjugate ranging from 3.0 nM (lowest) to 25 nM (highest) in 1% FBS in PBS for 1 h at 37° C. Cells were washed with 1% FBS (3×500 μL) and the cells were left in 500 μl of 1% FBS and images were acquired with confocal microscopy. Again, the PBS in cells was replaced with growth media and the cells were re-incubated at 37° C. for 8 to 48 h. Images acquired at different concentrations of the compound at 37° C. are shown in FIG. 3, at different time points are shown in FIG. 4, and with 100-fold excess of competition ligand are shown in FIG. 5.
Method 2: Human FAP-transfected HT1080-FAP cells were (100,000) were plated on 4-well confocal plates and incubated with different concentrations (50 nM, 25 nM, 12.5 nM, 6.25 nM, 3.125 nM and 1.65 nM) of the compound for 1 h at 37° C. The unbound fluorescence was removed by washing the cells 3× with medium, and cell-bound fluorescence was imaged using an Olympus confocal microscope. The experiment was done in triplicate.

Turning to `CN(C)c1ccc2c(-c3ccc(C(=O)NCCNC(=O)c4cccc5c4CN(C(=O)C[C@@H]4C[C@@H](C(=O)N6CC(F)(F)C[C@H]6C#N)NC4=O)C5)cc3C(=O)[O-])c3ccc(=[N+](C)C)cc-3oc2c1` [compound 5], the Kd in experiment [1] was in the range of 1 to 10 nM.

With `CN(C)c1ccc2c(c1)OC1=CC(=[N+](C)C)C=CC1C2c1ccc(C(=O)NCCOCCOCCOCCOCCC(=O)NCCNC(=O)c2ccc(-c3cn(Cc4cccc5c4CN(C(=O)C[C@@H]4C[C@@H](C(=O)N6CC(F)(F)C[C@H]6C#N)NC4=O)C5)nn3)cc2)cc1C(=O)O` (stereo partly drawn) [compound 1], in experiment [2], the “binding to HT1080 cells that do not express FAP5” value is reported as “does not bind”. Moreover, the Kd was in the range of 5 to 15 nM in experiment [3] (cells expressing FAP5 (FIG. 7)) and 1 to 10 nM in experiment [1]. For the same molecule, the “binding to HT1080 cells expressing FAP5 in the presence of an unlabelled FAP5 ligand” value in experiment [3] (competitor e.g., compound 8, FIG. 8) was “does not bind”. The “time remaining localized and internalized to FAP5-expressing cells” value in experiment [4] (12.5 nM, e.g., 1 hour, 8 hours, 24 hours, or more (FIG. 4)) was “at least 1 hour”. Moreover, the “localization to cells expressing FAP5 (confocal)” value in experiment [4] (HT1080-FAP cells, 50 nM, 25 nM, 12.5 nM, and 6.5 nM (FIG. 3)) is recorded as “localizes to cells”.

Regarding `N#C[C@@H]1C[C@H](F)CN1C(=O)[C@@H]1C[C@@H](CC(=O)N2Cc3cccc(Cn4cc(-c5ccc(C(=O)NCCNC(=O)CCC(=O)O)cc5)nn4)c3C2)C(=O)N1` [compound 21], the Kd in experiment [1] lay within 1 to 10 nM.

With `CN(C)c1ccc2c(-c3ccc(C(=O)NCCNC(=O)CCc4cccc5c4CN(C(=O)C[C@@H]4C[C@@H](C(=O)N6CC(F)(F)C[C@H]6C#N)NC4=O)C5)cc3C(=O)[O-])c3ccc(=[N+](C)C)cc-3oc2c1` [compound 6], the Kd in experiment [1] was 1 to 10 nM.
